Test results: patent publication US20240287549A1, “METHODS AND COMPOSITIONS FOR EFFICIENT PRODUCTION OF BIOFUELS AND BIOPLASTICS FROM TOXIC FEEDSTOCKS” (Massachusetts Institute of Technology, priority 2021, published 2024)

How the values were obtained:
yeast [1] = conditions: previously established (ref. 16); cited from earlier work
[2] = tested on: prototrophic wildtype (WT) strain FY4/5; experiment: Constituent toxicity: ethanol titer of high-gravity fermentation in YSC with single inhibitors; type: cell-based, Saccharomyces cerevisiae; conditions: for effect of KCl alone on ethanol titer: plus 50 mM KCl only; for additional boost of ethanol production by K+/pH adjustment: 50 mM KCl and NH4OH to pH 6 vs unadjusted
Description: To systematically characterize the impact of these constituent toxicities, ethanol production was assessed in yeast synthetic complete medium (YSC) with the 3 inhibitors added individually at equimolar concentration. As a completely chemically-defined formulation with trace vitamins, minerals, and amino acids, YSC lacks the undefined extracts contained in “rich” media that could supply unknown components to boost or hinder tolerance. […] For the constituent toxicity studies, prototrophic strain FY4/5 was expanded in a starter culture of YSC containing 150 g/L glucose and grown overnight to approximately OD600=10. To mimic industrial high cell density conditions, 100 OD600 units of cells per fermentation were harvested, washed with an equal volume of room temperature distilled and deionized water, and cell pellets resuspended in 4 mL media for a production cell density of approximately OD600=25 (9.9 g DCW/L). Fermentation media consisted of 250 g/L glucose in YSC and were supplemented with (left to right in FIG. 1A) 6 mM NH4Cl, 50/6 mM KCl/NH4OH, 100/128 mM acetic acid/NH4Cl, 100/50/128 mM acetic acid/KCl/NH4Cl, 100/50/128 mM acetic acid/KCl/NH4OH, 100/11 mM furfural/NHCl, 100/50/11 mM furfural/KCl/NH4OH, 100/7 mM 2-furanmethanol (FF—OH)/NHCl, 100/50/7 mM FF—OH/KCl/NH4Cl, 100/50/7 mM FF—OH/KCl/NHOH, 100/7 mM 5-hydroxymethyl-furfural (HMF)/NH4Cl, 100/50/7 mM HMF/KCl/NHOH, 100/7 mM furan-2,5-dimethanol (HMF-OH)/NH4Cl, 100/50/7 mM HMF-OH/KCl/NH4Cl, or 100/50/7 mM HMF-OH/KCl/NH4OH.
Inhibitor supplementation for the additionally screened conditions in FIGS. 2A-2C were: 50/60 mM acetic acid/NHCl, 50/50/60 mM acetic acid/KCl/NH4OH, 150/180 mM acetic acid/NH4Cl, 150/50/180 mM acetic acid/KCl/NH4OH, 50/9 mM furfural/NH4Cl, 50/50/9 mM furfural/KCl/NH4OH, 50/6 mM FF—OH/NHCl, 50/50/6 mM FF—OH/KCl/NH4OH, 150/15 mM furfural/NH4Cl. 150/50/15 mM furfural/KCl/NH4OH, 150/9 mM FF—OH/NH4Cl, 150/50/9 mM FF—OH/KCl/NH4OH, 50/6 mM HMF/NHCl, 50/50/6 mM HMF/KCl/NH4OH, 50/6 mM HMF-OH/NH4Cl, 50/50/6 mM HMF-OH/KCl/NH4OH, 150/11 mM HMF/NH4Cl, 150/50/11 mM HMF/KCl/NH4OH, 150/9 mM HMF-OH/NHCl, or 150/50/9 mM HMF-OH/KCl/NH4OH. The “/” notation is used for visual abbreviation but indicates the addition of all components during preparation. […] Furfural (Sigma-Aldrich #185914), HMF (Sigma-Aldrich #H40807), FF—OH (Sigma-Aldrich #W249106), and HMF-OH (Santa Cruz Biotechnology #sc-210242, scbt.com) were added directly to media in their supplier, concentrated forms to minimize the addition of volume. […] Fermentation samples of 550 μL were harvested after 48 h, cells removed by centrifugation (16,870×g, 2 min), and supernatants 0.45 μm syringe-filtered (Fisher Scientific #50-109-8735, fishersci.com) into glass HPLC vials and stored at 4° C. until analysis. Similarly, pre-inoculation fermentation media were syringe-filtered and diluted 1:5 in water for HPLC verification of starting glucose and inhibitor concentrations.
Analytes were separated isocratically in 5 mM sulfuric acid at 65° C. using a flow rate of […]. Under these conditions, retention times were approximately as follows: glucose 9.2 min, xylose 9.9 min, lactic acid 13.1 min, glycerol 13.8 min, acetic acid 15.3 min, ethanol 22.3 min, HMF 30.2 min, and furfural 45.0 min.

yeast [3] = conditions: prior experience
[4] = tested on: medium toxified to 40/28/55 mM furfural/HMF/acetic acid; conditions: Saccharomyces cerevisiae, pH 6
[5] = 100 mM of the substance in YSC, 250 g/L glucose, 48 h, 30 °C, no K+/pH adjustment
[6] = 100 mM of the substance, plus 50 mM KCl and NH4OH to pH 6

Question: Which effect on fermentation (yeast [1]) does the source give for `[Ca+2]` [Ca^2+] here?
Answer: fermentation-neutral

Question: For `OCc1ccco1` [FF—OH, 2-furanmethanol], which ethanol titer [2, 5] is on record?
Answer: 35 ± 0.4 g/L

Question: What about the ethanol titer [2, 6] of the same compound?
Answer: 59 ± 0.5 g/L

Question: What about the “effect of KCl alone on ethanol titer” value ([2]; 100 mM of the substance) of the same compound?
Answer: improvements intermediate to those with K+/pH together

Question: And the “additional boost of ethanol production by K+/pH adjustment” value ([2]; 100 mM)?
Answer: 69%

Question: And the “tolerated more than furfural at equimolar concentration (ethanol output)” value ([2]; 100 mM, FF-OH vs FF, no K+/pH adjustment)?
Answer: 9 ×

Question: With `[K+]` [K^+] as the compound, how does the “concentration up to which effects are fermentation-beneficial” value (yeast [1]) read?
Answer: at least 110 mM

Question: For `OCc1ccc(CO)o1` [HMF-OH, furan-2,5-dimethanol], which ethanol titer [2, 6] is on record?
Answer: 69 ± 0.6 g/L

Question: What about the “effect of KCl alone on ethanol titer” value ([2]; 100 mM of the substance) of the same compound?
Answer: improvements intermediate to those with K+/pH together

Question: What about the “additional boost of ethanol production by K+/pH adjustment” value ([2]; 100 mM) of the same compound?
Answer: 39%

Question: And the “higher ethanol titer than cognate aldehyde” value ([2]; 100 mM, HMF-OH vs HMF, no K+/pH adjustment)?
Answer: 45%

Question: What does the source list for `CC(=O)O` [acetic acid]?
Answer: ethanol titer [2, 5]: 17 ± 0.1 g/L; ethanol titer [2, 6]: 109 ± 0.6 g/L; effect of KCl alone on ethanol titer ([2]; 100 mM of the substance): no amelioration

Question: With `Cl.N` [NH4Cl] as the compound, how does the “concentration tolerated with no detectable changes on ethanol titer” value (yeast [3]) read?
Answer: at least 200 mM

Question: For `O=Cc1ccco1` [furfural], which ethanol titer [2, 5] is on record?
Answer: 4 ± 0.3 g/L

Question: With `O=Cc1ccc(CO)o1` [HMF, 5-hydroxymethyl-furfural] as the compound, how does the ethanol titer [2, 5] read?
Answer: 34 ± 0.3 g/L

Question: And the “concentration tolerable by yeast for growth to commence” value [4]?
Answer: approximately 1.5 g/L
